Experimental data as given in patent US20140193910A1, “METHODS FOR PRODUCING PANCREATIC PRECURSOR CELLS AND USES THEREOF” (priority 2011, published 2014).

Key:
Format in all cases: cell-based
[1] = system: human pancreatic stem cells; test: Cell clones from second digestion of pancreas tissue, DMEM-10% DFBS + GrNP supplementation; settings: for #clones after 1 passage, Method 1 / #clones after 1 passage, Method 2: 1 mM supplement, second digestion; for Enhancement of clonal cell proliferation: Method 1 and Method 2
Description: (§1) More specifically, after mincing of intact pancreatic tissue (harvested by the National Disease Research Interchange from donors within 4 hours of death), the pancreatic tissue was digested with liberase H (Roche). Two successive digestions of 20 and 30 minutes were performed at 37° C. in serum-free Dulbecco's modified Eagle's medium (DMEM) containing 1 mg/mL LIBERASE H. The cells and cell clusters released after each of these digestions were cultured.
In one embodiment of the methods described herein, termed herein as “Method 1,” twice digested pancreas digestion products can be cultured in DMEM supplemented with 10% dialyzed fetal bovine serum (DFBS).
(§2) In another embodiment of the methods described herein, termed herein as “Method 2,” the same two successive digestion procedure can be used, but the final tissue fragments remaining after the second digestion can also be cultured independently. For this embodiment of the methods, CMRL-1066 medium can be used as a second base culture medium in parallel with DMEM for all cultured pancreatic cell and tissue preparations. In one such example of Method 2, CMRL-1066 medium was supplemented with 10% DFBS and 2 mM L-glutamine and subdivided for the same GrNP supplementations as indicated for DMEM-10% DFBS medium in Method 1.

[2] = system: human pancreatic stem cells; test: Cell clones from twice-digested fragments of pancreas tissue, CMRL-1066-10% DFBS + GrNP supplementation; settings: for Clone expansion rate (percent of isolated clones that could be expanded to full cultures) / #clones after 1 passage, Method 2: 1 mM supplement; for Clone expansion rate (percent of isolated clones that could be expanded to full cultures) / #clones after 1 passage, Method 2 / Increase in number of clones (primary cell colonies) over control: CMRL-1066-10% DFBS; for #clones after 1 passage, Method 2: twice-digested tissue fragments; for Increase in number of clones (primary cell colonies) over control: Method 2; for Increase in proportion of clones that could be further expanded to full cultures: CMRL-1066 medium, tissue fragments, versus control
Description: as §1, §2
Accordingly, in some embodiments of the methods described herein, the culture medium comprise Xn, Xs, or a combination thereof.

[3] = system: human pancreatic stem cells; test: Population doubling analysis of pooled polyclonal strains (Method 2, CMRL-1066)
Description: Growth properties of human pancreatic stem cell strains. Four weeks after replating, clones were picked and expanded. Cells left after clonal isolations from the CMRL-1066 conditions were pooled and grown. They were trypsinized and counted on a regular basis, and population doublings were calculated accordingly. The number of clones detected for each condition is represented on the top two histograms. The bottom histogram represents the percentage of harvested clones that continued their expansion after isolation.
After isolating clonal cell colonies produced by the embodiment of the methods described herein termed Method 2 (Table 2) for expansion, the remaining unselected cell clones were pooled and expanded as well (i.e., polyclonal strains). Population doubling analyses were performed based on the passage of the expansion pool cultures.

| Structure (SMILES) | #clones after 1 passage, Method 1 [1] | #clones after 1 passage, Method 2 [1] | Enhancement of clonal cell proliferation [1] | Clone expansion rate (percent of isolated clones that could be expanded to full cultures) [2] | #clones after 1 passage, Method 2 [2] | Increase in number of clones (primary cell colonies) over control [2] | Increase in proportion of clones that could be further expanded to full cultures [2] | Cell expansion corresponding to the population doublings ([3]; polyclonal strains) | Population doublings of polyclonal strains ([3]; supplemented medium, expansion pool cultures) |
| --- | --- | --- | --- | --- | --- | --- | --- | --- | --- |
| O=c1[nH]c(=O)c2[nH]cnc2[nH]1 [Xn, xanthine] | 3 | 5 | not statistically different than control | 13% | 54 | approximately 50% | 3.4 fold | ~1e+06 fold | 20 population doublings |
| O=c1[nH]c(=O)c2ncn([C@@H]3O[C@H](CO)[C@@H](O)[C@H]3O)c2[nH]1 [Xs, xanthosine] | 13 | 12 | more effective in enhancing clonal cell proliferation than Xn | 10% | 59 | approximately 50% | 2.6 fold |  |  |
| O=c1[nH]cnc2nc[nH]c12 [Hx, hypoxanthine] | 22 | 13 | more effective in enhancing clonal cell proliferation than Xn |  |  |  |  |  |  |
